Source: patent publication US12624026B2, “Inhibitors of SARM1” (Disarm Therapeutics, Inc., priority 2018, dated 2026)

Molecular target: T1, SARM1 SAM-TIR (Homo sapiens, UniProt Q6SZW1)
T1 construct: a fragment of the SARM1 molecule encompassing the SAM and TIR domains; made in house; host or cells: NRK1-HEK293T cells, transiently transfected; the cleared, unpurified lysate was used as the enzyme
T1 sequence (Q6SZW1 409-724 limits assumed): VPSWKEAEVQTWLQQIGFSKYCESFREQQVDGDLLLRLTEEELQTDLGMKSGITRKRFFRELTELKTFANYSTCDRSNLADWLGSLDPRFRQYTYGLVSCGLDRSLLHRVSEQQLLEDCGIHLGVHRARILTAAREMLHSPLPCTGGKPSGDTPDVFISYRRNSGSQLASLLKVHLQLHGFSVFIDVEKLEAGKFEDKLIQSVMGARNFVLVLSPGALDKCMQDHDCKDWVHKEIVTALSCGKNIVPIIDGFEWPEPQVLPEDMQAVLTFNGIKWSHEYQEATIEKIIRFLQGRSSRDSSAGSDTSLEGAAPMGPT
Experiment: biochemical
Details: SAM-TIR lysate 5 μg/mL, 2 h pre-incubation, 5 μM NAD+, RapidFire MS of NAD+ and ADPR; read-out: SARM1 IC50
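Also: inhibition of SARM1 SAM-TIR NADase activity, i.e. NAD+ cleavage, using lysate of NRK1-HEK293T cells overexpressing the SAM-TIR fragment.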

Row | IC50 [nM] | Compound
1 | < 1000 | C#CCOCCOCCn1sc(Nc2ccccc2C(F)(F)F)c(C#N)c1=O [Example 179]
2 | < 1000 | CN(C)C(=N)c1c(Nc2cccc(Cl)c2Cl)s[nH]c1=O [Example 133]
3 | < 1000 | COC(C)(C)Cn1sc(Nc2c(Cl)cccc2Cl)c(C#N)c1=O [Example 96]
4 | < 1000 | Cn1sc(Nc2ccccc2Cl)c(C#N)c1=O [Example 32]
5 | < 1000 | COc1cccc(C(F)(F)F)c1Nc1s[nH]c(=O)c1C#N [Example 103]
6 | < 1000 | Cc1ccc2c(Nc3sn(C)c(=O)c3C#N)c(Cl)ccc2n1 [Example 42]
7 | < 1000 | COC(C)(C)Cn1sc(Nc2ccccc2C(F)(F)F)c(C#N)c1=O [Example 97]
8 | 1000 to 5000 | O=C(c1c(Nc2ccccc2C(F)(F)F)s[nH]c1=O)N1CCCCC1 [Example 117]
9 | 1000 to 5000 | N#Cc1c(O)nsc1Nc1cc(Cl)cc(Cl)c1 [Example 10]
10 | > 5000 | O=c1[nH]sc(Nc2ccccc2C(F)(F)F)c1-c1ccccc1 [Example 168]
11 | 1000 to 5000 | C[C@@H](c1ccccc1)n1sc(Nc2c(Cl)cccc2Cl)c(C(=O)N2CCOCC2)c1=O [Example 167]
12 | > 5000 | N#Cc1c(O)nsc1Nc1cccnc1 [Example 20]
13 | < 1000 | N#Cc1c(O)nsc1Nc1c(Cl)cccc1Cl [Example 16]
14 | 1000 to 5000 | N#Cc1c(Nc2ccc3c(c2)ncn3[C@H]2CCNC2)s[nH]c1=O [Example 151]
15 | < 1000 | CC(O)Cn1sc(Nc2ccccc2C(F)(F)F)c(C#N)c1=O (stereo not drawn) [Example 43]
16 | < 1000 | N#Cc1c(Nc2ccccc2C(F)(F)F)sn(C[C@H]2CCOC2)c1=O [Example 63]
17 | 1000 to 5000 | O=C(c1c(Nc2ccccc2C(F)(F)F)s[nH]c1=O)N1CCOCC1 [Example 148]
18 | < 1000 | CS(=O)(=O)CCn1sc(Nc2ccccc2C(F)(F)F)c(C#N)c1=O [Example 55]
19 | > 5000 | COCCN(C)C(=O)c1c(Nc2c(Cl)cccc2Cl)s[nH]c1=O [Example 119]
20 | > 5000 | Cc1c(Nc2ccccc2C(F)(F)F)s[nH]c1=O [Example 169]

Row | IC50 [nM] | Compound
21 | < 1000 | COCCn1sc(Nc2c(Cl)cccc2Cl)c(C#N)c1=O [Example 73]
22 | 1000 to 5000 | N#Cc1c(Nc2c(Cl)ccc3ncccc23)s[nH]c1=O [Example 104]
23 | < 1000 | Cn1sc(Nc2c(Cl)ccc3c2CCCO3)c(C#N)c1=O [Example 66]
24 | < 1000 | Cn1sc(Nc2ccc(Cl)c3c2CCO3)c(C#N)c1=O [Example 41]
25 | 1000 to 5000 | COc1ccccc1Nc1snc(O)c1C#N [Example 14]
26 | 1000 to 5000 | Cn1sc(Nc2c(Cl)cccc2Cl)c(C(=O)N2CCOCC2)c1=O [Example 143]
27 | < 1000 | N#Cc1c(Nc2ccccc2C(F)(F)F)sn(Cc2ccccn2)c1=O [Example 62]
28 | < 1000 | COc1cccc(Cl)c1Nc1s[nH]c(=O)c1C#N [Example 100]
29 | < 1000 | N#Cc1c(Nc2ccccc2C(F)(F)F)sn(CCC(=O)O)c1=O [Example 105]
30 | < 1000 | N#Cc1c(Nc2ccccc2C(F)(F)F)sn(CCCCCNC(=O)CCCC[C@@H]2SC[C@@H]3NC(=O)N[C@@H]32)c1=O [Example 175]
31 | < 1000 | Cn1sc(Nc2c(Cl)ccc3c2CCN3)c(C#N)c1=O [Example 72]
32 | > 5000 | COc1cccc(C(F)(F)F)c1Nc1sn(C)c(=O)c1C(=O)N1CCOCC1 [Example 158]
33 | > 5000 | COCCn1sc(Nc2ccccc2C(F)(F)F)c(-c2ncon2)c1=O [Example 152]
34 | < 1000 | CCCn1sc(Nc2ccccc2C(F)(F)F)c(C#N)c1=O [Example 87]
35 | < 1000 | N#Cc1c(Nc2ccccc2C(F)(F)F)sn(CCc2ccccc2)c1=O [Example 83]
36 | < 1000 | N#Cc1c(Nc2ccccc2C(F)(F)F)sn(CCOCCOCCNC(=O)CCCC[C@@H]2SC[C@@H]3NC(=O)N[C@@H]32)c1=O [Example 178]
37 | < 1000 | CSc1ccccc1Nc1snc(O)c1C#N [Example 23]
38 | < 1000 | CC(C)(O)Cn1sc(Nc2c(Cl)cccc2Cl)c(C#N)c1=O [Example 101]
39 | < 1000 | Cc1ccc2ncccc2c1Nc1sn(C)c(=O)c1C#N [Example 81]
